Common to all, as to assay type: cell-based
One test has as its system Klebs. Pneu. MGH-2. The test can be described thus: Minimal Inhibitory Concentration, Klebs. Pneu. MGH-2.
The test system of a further test is Prot. Vulg. 1810. The test can be described thus: Minimal Inhibitory Concentration, Prot. Vulg. 1810.
A further test has as its system E. Coli Brig. In words: Minimal Inhibitory Concentration, E. Coli Brig. The note with it: Escherichia coli.
A further test has as its system Entero C. IMM-11. In words: Minimal Inhibitory Concentration, Entero C. IMM-11.
The subject of the next test is Pseudo. Aeru BRK. The test can be described thus: Minimal Inhibitory Concentration, Pseudo. Aeru BRK.
The subject of the next test is Serr. Mar. IMM-16. The test can be described thus: Minimal Inhibitory Concentration, Serr. Mar. IMM-16.
For another test, the system named is Pseudo. Aeru 28. In words: Minimal Inhibitory Concentration, Pseudo. Aeru 28.
Another test relates to E. Coli Vogel. In words: Minimal Inhibitory Concentration, E. Coli Vogel. The note with it: Escherichia coli.
The next test has as its system Staph Aureus UC-76. The test can be described thus: Minimal Inhibitory Concentration, Staph Aureus UC-76. The note with it: Staphylococcus aureus, UC76.
The subject of the next test is Pseudo. Aeru UI-18. In words: Minimal Inhibitory Concentration, Pseudo. Aeru UI-18.

In brackets after ≈: the same amount, converted by molar mass.

The term MIC denotes the least concentration at which growth counts as inhibited. A high value points to a need for much substance. In the case of `CCOC(=O)CNC(=O)Nc1ccc2[nH]c(=O)c(C(=O)N[C@@H](C(=O)N[C@@H]3C(=O)N4[C@@H]3SC(C)(C)[C@@H]4C(=O)O)c3ccc(O)cc3)cc2c1`, the MIC against Klebs. Pneu. MGH-2 amounted to 12.5 µg/mL (≈ 18.4 µM); in the test on Prot. Vulg. 1810, 6.3 µg/mL (≈ 9.26 µM); in the test on E. Coli Brig, 12.5 µg/mL (≈ 18.4 µM); against Entero C. IMM-11, 12.5 µg/mL (≈ 18.4 µM); with Pseudo. Aeru BRK, 3.1 µg/mL (≈ 4.55 µM); in the test with Serr. Mar. IMM-16 it was 12.5 µg/mL (≈ 18.4 µM). Moreover, the minimum inhibitory concentration (MIC) in the test with Pseudo. Aeru 28 came out at 3.1 µg/mL (≈ 4.55 µM); against E. Coli Vogel, 6.3 µg/mL (≈ 9.26 µM); against Staph Aureus UC-76, 1.6 µg/mL (≈ 2.35 µM); against Pseudo. Aeru UI-18 it was 3.1 µg/mL (≈ 4.55 µM).
As to `CCNC(=O)CNC(=O)Nc1ccc2[nH]c(=O)c(C(=O)N[C@@H](C(=O)N[C@@H]3C(=O)N4[C@@H]3SC(C)(C)[C@@H]4C(=O)O)c3ccc(O)cc3)cc2c1`, the MIC was 12.5 µg/mL (≈ 18.4 µM) in the test on Klebs. Pneu. MGH-2; 1.6 µg/mL (≈ 2.35 µM) in the test on Prot. Vulg. 1810; 6.3 µg/mL (≈ 9.27 µM) with E. Coli Brig; 3.1 µg/mL (≈ 4.56 µM) against Entero C. IMM-11; 1.6 µg/mL (≈ 2.35 µM) in the test on Pseudo. Aeru BRK; 12.5 µg/mL (≈ 18.4 µM) in the test on Serr. Mar. IMM-16. Besides, the MIC came to 1.6 µg/mL (≈ 2.35 µM) against Pseudo. Aeru 28, 1.6 µg/mL (≈ 2.35 µM) in the test with E. Coli Vogel, 0.8 µg/mL (≈ 1.18 µM) in the test on Staph Aureus UC-76 and 1.6 µg/mL (≈ 2.35 µM) in the test on Pseudo. Aeru UI-18.
Take `CC1(C)S[C@@H]2[C@H](NC(=O)[C@H](NC(=O)c3cc4cc(NC(=O)NCC(N)=O)ccc4[nH]c3=O)c3ccc(O)cc3)C(=O)N2[C@H]1C(=O)O`: the MIC against Klebs. Pneu. MGH-2 came out at 12.5 µg/mL (≈ 19.2 µM); with Prot. Vulg. 1810 it was 1.6 µg/mL (≈ 2.46 µM); with E. Coli Brig, 6.3 µg/mL (≈ 9.67 µM); against Entero C. IMM-11, 6.3 µg/mL (≈ 9.67 µM); against Pseudo. Aeru BRK, 0.8 µg/mL (≈ 1.23 µM); in the test on Serr. Mar. IMM-16, 12.5 µg/mL (≈ 19.2 µM). Moreover, the MIC is 0.8 µg/mL (≈ 1.23 µM) with Pseudo. Aeru 28, 1.6 µg/mL (≈ 2.46 µM) with E. Coli Vogel, 0.8 µg/mL (≈ 1.23 µM) with Staph Aureus UC-76 and 1.6 µg/mL (≈ 2.46 µM) against Pseudo. Aeru UI-18.
As for `CCNC(=O)Nc1ccc2[nH]c(=O)c(C(=O)N[C@@H](C(=O)N[C@@H]3C(=O)N4[C@@H]3SC(C)(C)[C@@H]4C(=O)O)c3ccc(O)cc3)cc2c1` [A CH3 CH2, N-[6-[[(Ethylamino)carbonyl]amino]-1,2-dihydro-2-oxo-3-quinolinylcarbonyl]amoxicillin], the MIC against Klebs. Pneu. MGH-2 is 6.3 µg/mL (≈ 10.1 µM); against Prot. Vulg. 1810, 1.6 µg/mL (≈ 2.57 µM); against E. Coli Brig, 3.1 µg/mL (≈ 4.98 µM); against Entero C. IMM-11, 3.1 µg/mL (≈ 4.98 µM); in the test with Pseudo. Aeru BRK it was 1.6 µg/mL (≈ 2.57 µM); against Serr. Mar. IMM-16, 6.3 µg/mL (≈ 10.1 µM). Also, the MIC is 0.4 µg/mL (≈ 0.642 µM) against Pseudo. Aeru 28, 1.6 µg/mL (≈ 2.57 µM) in the test on E. Coli Vogel, 0.4 µg/mL (≈ 0.642 µM) in the test on Staph Aureus UC-76 and 1.6 µg/mL (≈ 2.57 µM) in the test on Pseudo. Aeru UI-18.
With `CCNC(=O)Nc1ccc2[nH]cc(C(=O)N[C@@H](C(=O)N[C@@H]3C(=O)N4[C@@H]3SC(C)(C)[C@@H]4C(=O)O)c3ccc(O)cc3)c(=O)c2c1` [B CH3 CH2, N-[6-[[(Ethylamino)carbonyl]amino]-1,4-dihydro-4-oxo-3-quinolinylcarbonyl]amoxicillin], the minimal inhibitory concentration (MIC) with Klebs. Pneu. MGH-2 amounted to 3.1 µg/mL (≈ 4.98 µM); in the test on Prot. Vulg. 1810, 0.8 µg/mL (≈ 1.28 µM); in the test on E. Coli Brig it was 6.3 µg/mL (≈ 10.1 µM); with Entero C. IMM-11 it was 3.1 µg/mL (≈ 4.98 µM); against Pseudo. Aeru BRK it was 0.4 µg/mL (≈ 0.642 µM); against Serr. Mar. IMM-16, 1.6 µg/mL (≈ 2.57 µM). For the same compound, the MIC in the test with Pseudo. Aeru 28 was 0.8 µg/mL (≈ 1.28 µM); against E. Coli Vogel, 0.4 µg/mL (≈ 0.642 µM); with Staph Aureus UC-76, 0.8 µg/mL (≈ 1.28 µM); against Pseudo. Aeru UI-18, 3.1 µg/mL (≈ 4.98 µM).

For the origin of these results see US4374138A, “Antibacterial amide compounds, compositions, and methods of use” (Warner-Lambert Company, priority 1981, dated 1983).
